Experiments:
MC4-R [1] = biological target: T1, MC4-R (Homo sapiens, UniProt P32245); assay: Competitive inhibition assay using [I^125]-NDP-α-MSH, hMC4-R membranes; assay type: binding; design: host or cells: TREx-293 (HEK-293 stably expressing Tet repressor); conditions: 1 μM test compound; read-out: Inhibition at 1 μM (NDP-α-MSH) In Normal System, MC4-R
How it was run: (§1)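 Tracer was 0.4 nM for MC3-R and MC5-R, 0.2 nM for MC4-R and 0.1 nM for MC1-R. Bound radioactivity was gamma-counted after filtration; values are triplicate means, with results below 0% reported as 0%.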

[2] = ICV food intake and body weight change; assay type: in vivo; conditions: rat, 1 nmol, 24 hours
How it was run: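 Rats fitted with intracerebroventricular cannulas and fed ad libitum got a single ICV dose of vehicle or compound (1-3 nmol). Food intake and body-weight change over the 24 h after dosing were compared with a 1-week vehicle baseline. Values at 48 h and 72 h were also recorded to follow return to baseline.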

MC3-R [3] = biological target: T2, MC3-R (Homo sapiens, UniProt P41968); assay: cAMP functional activity assay in HEK-293 cells; assay type: cell-based; design: expressed in transfected cells; host or cells: HEK-293; conditions: 1 μM concentration where stated
Experimental: (§2) General method for EC50 determination in functional activity assay. […] Data analysis and EC50 values were determined using nonlinear regression analysis with Prism Graph-Pad software.
(§3) Functional status. The agonist/antagonist status with respect to MC1-R, MC-3R, MC4-R and MC5-R of certain compounds of the invention was determined. Antagonistic activity was determined by measuring the inhibition of α-MSH-induced or NDP-α-MSH-induced cAMP levels following exposure to graded doses of compounds as in the preceding descriptions.

MC5-R [4] = biological target: T3, MC5-R (Homo sapiens, UniProt P33032); assay: cAMP functional activity assay in HEK-293 cells; assay type: cell-based; design: expressed in transfected cells; host or cells: HEK-293; conditions: 1 μM concentration where stated
Experimental: as §2, §3

MC4-R [5] = biological target: T1, MC4-R; assay: cAMP agonist stimulation, low receptor density system (0.1 ng/mL doxycycline); conditions: for Efficacy/Intrinsic Activity: 0.1 ng/mL doxycycline, low receptor density hMC4-R system, NDP-α-MSH maximal cAMP = 1.0
MC4-R [6] = biological target: T1, MC4-R; assay: cAMP functional activity assay in HEK-293 cells, normal system; assay type: cell-based; design: expressed in transfected cells; host or cells: HEK-293; conditions: for intrinsic activity at MC4-R in a normal system: normal receptor density system, NDP-α-MSH = 1.0; for functional status at MC4-R in cAMP assay: normal system, 1 μM concentration where stated
MC1-R [7] = biological target: T4, MC1-R (Mus musculus, UniProt Q01727); assay: cAMP functional activity assay in B-16 mouse melanoma cells; assay type: cell-based; conditions: 1 μM concentration where stated
T4 construct: B-16 mouse melanoma cells (containing MC1-R); endogenous in cells
Experimental: as §2, §3

MC4-R [8] = biological target: T1, MC4-R; assay: cAMP agonist stimulation, high receptor density system (10 ng/mL doxycycline); conditions: for Efficacy/Intrinsic Activity: 10 ng/mL doxycycline, high receptor density hMC4-R system, NDP-α-MSH maximal cAMP = 1.0
MC5-R [9] = biological target: T3, MC5-R; assay: Competitive inhibition assay using [I^125]-NDP-α-MSH, hMC5-R membranes; assay type: binding; design: expressed in transfected cells; conditions: 1 μM test compound; read-out: Inhibition at 1 μM (NDP-α-MSH) In Normal System, MC5-R
How it was run: as §1

MC1-R [10] = biological target: T4, MC1-R; assay: Competitive inhibition assay using [I^125]-NDP-α-MSH, B-16 mouse melanoma cell membranes; assay type: binding; conditions: for inhibition at 1 µM: 1 μM test compound, read-out: Inhibition at 1 μM (NDP-α-MSH) In Normal System, MC1-R; for Ki: read-out: Ki (nM) (NDP-α-MSH) In Normal System, MC1-R
How it was run: as §1

MC3-R [11] = biological target: T2, MC3-R; assay: Competitive inhibition assay using [I^125]-NDP-α-MSH, hMC3-R membranes; assay type: binding; design: expressed in transfected cells; conditions: 1 μM test compound; read-out: Inhibition at 1 μM (NDP-α-MSH) In Normal System, MC3-R
How it was run: as §1

[12] = IP (and IN) food intake, mice; assay type: in vivo; conditions: mouse, IP, 4 hours
How it was run: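 Male Sprague-Dawley rats dosed IV (0.5-3, up to 10 mg/kg) or IP (0.5-10, up to 50 mg/kg); male C57BL/6 mice dosed IP. Change in food intake and body weight over 24 h post-dose versus 1-week vehicle baseline, with 48 and 72 h reversal checks.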

[13] = Penile erection induction in male rats; assay type: in vivo; conditions: rat
How it was run: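 Male Sprague-Dawley rats (200-250 g), groups of 4-8, dosed IV or ICV at various doses and observed individually for penile erections. Only statistically relevant increases over vehicle-control mean PEs count as induction; IV responses below 1.0 PEs/rat treated as equivocal, some retested ICV.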

[14] = IV and IP food intake and body weight change, rats; assay type: in vivo; conditions: rat, IV, 10 mg/kg, 24 hours
Experimental: IV and IP food intake and body weight change. Change in food intake and body weight was evaluated for selected compounds. Male Sprague-Dawley rats or male C57BL/6 mice were utilized. Animals were individually housed in conventional plexiglass hanging cages and maintained on a controlled 12 hour on/off light cycle. Water and powdered (LabDiet, 5P00 Prolab RMH 3000) or pelleted (Harlan Teklad 2018 18% Protein Rodent Diet) food was provided ad libitum. For 1 week before treatment, 24-hour food intake and body weight change was recorded to assess a baseline for the group during vehicle treatment. The rats were dosed IV with vehicle or selected compounds (0.5-3 mg/kg, and in some cases up to 10 mg/Kg) or dosed intraperitoneally (IP) with vehicle or selected compounds (0.5-10 mg/kg, and in some cases up to 50 mg/kg). Mice were dosed IP. The changes in body weight and food intake for the 24 hour period after dosing were determined. The changes in body weight and food intake for the 48 hour and 72 hour periods after dosing were also measured to determined reversal of changes in body weight and food intake effects back to baseline levels.

T1 sequence (P32245 whole entry): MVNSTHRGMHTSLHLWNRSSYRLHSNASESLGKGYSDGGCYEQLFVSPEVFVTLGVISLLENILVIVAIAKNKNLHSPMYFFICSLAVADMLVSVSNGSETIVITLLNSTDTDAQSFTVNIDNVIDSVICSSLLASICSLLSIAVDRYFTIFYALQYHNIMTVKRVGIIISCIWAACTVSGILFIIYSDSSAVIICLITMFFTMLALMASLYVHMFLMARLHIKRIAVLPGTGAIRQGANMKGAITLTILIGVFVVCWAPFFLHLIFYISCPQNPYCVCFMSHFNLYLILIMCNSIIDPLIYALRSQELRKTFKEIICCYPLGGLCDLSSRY
T3 sequence (P33032 whole entry): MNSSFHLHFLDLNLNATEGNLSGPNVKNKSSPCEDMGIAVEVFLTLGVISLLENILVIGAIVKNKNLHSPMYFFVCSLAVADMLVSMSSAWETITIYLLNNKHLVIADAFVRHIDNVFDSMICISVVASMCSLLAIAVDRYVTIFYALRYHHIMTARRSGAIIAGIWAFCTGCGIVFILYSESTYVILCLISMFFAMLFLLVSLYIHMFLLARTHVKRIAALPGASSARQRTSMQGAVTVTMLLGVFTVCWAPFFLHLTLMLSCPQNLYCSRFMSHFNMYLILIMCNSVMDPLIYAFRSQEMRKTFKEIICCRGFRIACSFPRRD
T4 sequence (Q01727 whole entry): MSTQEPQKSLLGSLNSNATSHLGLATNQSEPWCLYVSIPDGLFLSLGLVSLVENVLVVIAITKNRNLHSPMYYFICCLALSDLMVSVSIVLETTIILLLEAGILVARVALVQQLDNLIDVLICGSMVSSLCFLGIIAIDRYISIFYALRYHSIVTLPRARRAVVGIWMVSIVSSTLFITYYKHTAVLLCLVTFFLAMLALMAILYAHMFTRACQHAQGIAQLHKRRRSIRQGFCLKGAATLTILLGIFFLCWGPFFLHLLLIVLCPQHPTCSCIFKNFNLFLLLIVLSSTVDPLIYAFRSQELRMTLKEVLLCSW
T2 sequence (P41968 whole entry): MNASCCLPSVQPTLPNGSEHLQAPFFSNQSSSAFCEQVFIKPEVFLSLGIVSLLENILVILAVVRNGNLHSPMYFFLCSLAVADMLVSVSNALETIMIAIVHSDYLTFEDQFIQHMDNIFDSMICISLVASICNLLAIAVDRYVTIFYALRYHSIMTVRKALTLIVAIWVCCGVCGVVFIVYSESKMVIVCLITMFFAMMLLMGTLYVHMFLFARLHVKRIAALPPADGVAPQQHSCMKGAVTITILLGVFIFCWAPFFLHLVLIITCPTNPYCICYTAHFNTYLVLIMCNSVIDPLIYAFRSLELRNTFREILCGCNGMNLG

| SMILES | inhibition at 1 µM (MC4-R [1]) [%] | functional status at MC3-R in cAMP assay (MC3-R [3]) | functional status at MC5-R in cAMP assay (MC5-R [4]) | Efficacy/Intrinsic Activity (MC4-R [5]) | intrinsic activity at MC4-R in a normal system (MC4-R [6]) | functional status at MC4-R in cAMP assay (MC4-R [6]) | functional status at MC1-R in cAMP assay (MC1-R [7]) | EC50 (MC4-R [8]) [nM] | Efficacy/Intrinsic Activity (MC4-R [8]) | inhibition at 1 µM (MC5-R [9]) [%] | inhibition at 1 µM (MC1-R [10]) [%] | Ki (MC1-R [10]) [nM] | inhibition at 1 µM (MC3-R [11]) [%] | Penile Erection ICV ([13]; ICV) | penile erection response ([13]; ICV, 0.01 to 10 nmol) | Penile Erection IV ([13]; IV) | also measured |
| --- | --- | --- | --- | --- | --- | --- | --- | --- | --- | --- | --- | --- | --- | --- | --- | --- | --- |
| Cc1cc(Cl)ccc1C[C@@H](N)C(=O)N1C[C@@H](C)N(CCc2c[nH]c3ccccc23)C[C@@H]1CCCNC(=N)N [Example 9, N-(3-{1-(2(R)-Amino-(4-chloro-2-methyl-phenyl)-propionyl)-5(R)-methyl-4-[2-(1H-indol-3-yl)-ethyl]-piperazin-2(S)-yl}-propyl)-guanidine] | 98 | no intrinsic activity (intrinsic activity below 0.1 (10%) is classified as inactive or having no intrinsic activity) | no intrinsic activity (intrinsic activity below 0.1 (10%) is classified as inactive or having no intrinsic activity) | None | 1 | full agonist | no intrinsic activity (intrinsic activity below 0.1 (10%) is classified as inactive or having no intrinsic activity) | 22 | 0.73 | 75 | 40 | 1730 | 74 | No | no penile erection response | No | decrease in body weight [2]: 2%; decrease in food intake [2]: 16%; maximal decrease in food intake ([12]; 3 mg/kg): 10%; penile erection response ([13]; IV, 0.3 to 30 μg/kg): no penile erection response |
| Cc1cc(Cl)ccc1C[C@@H](N)C(=O)N1C[C@@H](C)N(C(=O)Cc2ccc3ccccc3c2)C[C@@H]1CCCNC(=N)N [Example 10, N-{3-[1-[2(R)-Amino-3-(4-chloro-2-dimethyl-phenyl)-propionyl]-5(R)-methyl(2-naphthalen-2-yl-acetyl)-piperazin-2(S)-yl]-propyl}-guanidine] | 96 | partial agonist (intrinsic activity between 0.1 (10%) and 0.7 (70%) is classified as a partial agonist) | agonist (intrinsic activity of 0.7 (70%) or higher is classified as an agonist) | 0.23 | 0.9 | agonist (intrinsic activity of 0.7 (70%) or higher is classified as an agonist) | partial agonist (intrinsic activity between 0.1 (10%) and 0.7 (70%) is classified as a partial agonist) | 26 | 0.69 | 36 | 3 | 462 | 34 | – | – | Yes* | EC50 (MC4-R [5]): 38 nM; maximal decrease in food intake ([12]; 10 mg/kg): 27%; maximal decrease in food intake [14]: 33%; animals responding ([13]; IV, 0.3 to 30 μg/kg): not more than 66% |
| C[C@@H]1CN(C(=O)[C@H](N)Cc2ccc3ccccc3c2)[C@@H](CCCNC(=N)N)CN1C(=O)CCCc1c[nH]c2ccccc12 [Example 7] | 88 | no intrinsic activity (intrinsic activity below 0.1 (10%) is classified as inactive or having no intrinsic activity) | no intrinsic activity (intrinsic activity below 0.1 (10%) is classified as inactive or having no intrinsic activity) | None | 0.4 | partial agonist (intrinsic activity between 0.1 (10%) and 0.7 (70%) is classified as a partial agonist) | no intrinsic activity (intrinsic activity below 0.1 (10%) is classified as inactive or having no intrinsic activity) | 72 | 0.38 | 62 | 0 | 1200 | 32 | No | no penile erection response | – | – |
| Cc1[nH]c2ccccc2c1CCN1C[C@H](CCCNC(=N)N)N(C(=O)[C@H](N)Cc2ccc3ccccc3c2)C[C@H]1C [Example 8, N-(3-{1-(2(R)-Amino-3-naphthalen-2-yl-propionyl)-5(R)-methyl-4-[2-(2-methyl-1H-indol-3-yl)-ethyl]-piperazin-2(S)-yl}-propyl)-guanidine] | 95 | no intrinsic activity (intrinsic activity below 0.1 (10%) is classified as inactive or having no intrinsic activity) | agonist (intrinsic activity of 0.7 (70%) or higher is classified as an agonist) | None | 0.9 | agonist (intrinsic activity of 0.7 (70%) or higher is classified as an agonist) | partial agonist (intrinsic activity between 0.1 (10%) and 0.7 (70%) is classified as a partial agonist) | – | None | 76 | 73 | 148 | 57 | No | – | – | penile erection response ([13]; ICV, 0.01 to 10 nM): no penile erection response |

Source: patent US20090081197A1 (Palatin Technologies, Inc., priority 2007, published 2009)
